From patent US20240342199A1, “COMBINATION THERAPIES TARGETING MITOCHONDRIA FOR CANCER THERAPY” (The Wistar Institute of Anatomy and Biology, priority 2014, published 2024)

Assays:
[1] = test system: Ser473-phosphorylated Akt (pAkt); assay: Ser473-phosphorylated Akt in patient-derived organotypic cultures; format: cell-based, Human; details: tumor organoids, 48 h
Procedure: Organotypic cultures. Short-term organotypic cultures from the different patient samples were established as described previously. Briefly, precise thick tissue slices (300 μm) were obtained from each case by vibratome serial cutting (VT1200, Leica Microsystems, Milan, Italy), and cultured in six-well plates on organotypic inserts (Millicell PICM ORG, Merck Millipore) for up to 48 h in 1 ml of Ham-F12 complete medium supplemented with vehicle (DMSO, 2.5 μl), pan-PI3K inhibitor LY294002 (50 or 100 μM) or PX-886 (2.5, 5 or 10 μM), or mitochondrial-targeted small molecule Heat Shock Protein-90 (Hsp90) inhibitor, 10 Gamitrinib (GA mitochondrial matrix inhibitor, 10 or 25 μM), or the combination of PX-886 plus Gamitrinib (each agent used at 10 μM). At the end of the experiment, one tissue slice per condition was formalin-fixed and paraffin-embedded (FFPE), and processed for morphological and immunohistochemical analysis. An additional tissue slice collected at the end of the experiment was embedded in optimal cutting temperature, and snap-frozen for molecular or immunofluorescence studies.

[2] = test system: Akt2 (Ser474) in cytosol and mitochondria; assay: Phosphorylated Akt in cytosol and mitochondrial extracts by Western blotting; format: cell-based, Human; details: pretreatment with 17-AAG; cytosol and mitochondria
Procedure: Subcellular and submitochondrial fractionation. Mitochondrial fractions were isolated using an ApoAlertTM cell fractionation kit (CLONTECH), as described. Submitochondrial fractions comprising outer membrane (OM), inner membrane (IM), inter-membrane space (IMS) and matrix were prepared as described.

class I PI3K isoforms = details: cited from earlier work
Akt phosphorylation = Akt phosphorylation in tumor cell lines by Western blotting; format: cell-based, Human; details: PC3 cells, AZD6482 (10 μM), (0.4-2 μM) or BKM120 (0.4-2 μM), 48 h
LN229 cells = assay: High-throughput screening: cell viability (resazurin), compounds with DMSO or Gamitrinib; format: cell-based, Human; details: for inhibition at 0.000128 µM / inhibition at 0.00064 µM / inhibition at 0.0032 µM / inhibition at […] / inhibition at 0.08 µM / inhibition at 0.4 µM / inhibition at 2 µM / inhibition at 10 µM: Homo sapiens, LN-229, read-out: Percent inhibition; for inhibition at 0.000128 µM: compound 0.000128 uM + DMSO (control); for inhibition at 0.00064 µM: compound 0.00064 uM + DMSO (control); for inhibition at 0.0032 µM: compound 0.0032 uM + DMSO (control); for inhibition at […]: compound 0.016 uM + DMSO (control); for inhibition at 0.08 µM: compound 0.08 uM + DMSO (control); for inhibition at 0.4 µM: compound 0.4 uM + DMSO (control); for inhibition at 2 µM: compound 2 uM + DMSO (control); for inhibition at 10 µM: compound 10 uM + DMSO (control)
Procedure: High-throughput screening and synergy experiments. Compounds for the molecular targeted cancer therapeutics were either purchased from SelleckChem or acquired under Material Transfer Agreement (MTA) with the Wistar Institute MTA. Compounds were suspended in DMSO. The purity and identity of the compounds was confirmed by LC/MS for a fraction of the compounds. Source plates with a 10 point dilution series (5-fold dilutions, ranging from 10-0.0001 μmol/L) were prepared for screening. […] Cell viability was determined by the addition of resazurin to a final concentration of 50 μM and incubation for 8 h. Fluorescence intensity (excitation, 560 nm, emission, 590 nm) was determined on an Envision Xcite Multilabel Reader (Perkin-Elmer), and the fractional growth inhibition was determined by normalizing assay wells to the aggregated average responses of positive control (10 μM doxorubicin) and negative control (0.2% DMSO) treatments (n=12).

LN229 or PC3 cells = assay: Analysis of bioenergetics (ATP, glucose, lactate, oxygen consumption); format: cell-based, Human; details: PX-866 (10 μM), AZD6482 (10 μM) or GDC0941 (2 μM) for 48 h
[3] = compound 0.000128 uM + Gamitrinib (1 μM)
[4] = compound 0.00064 uM + Gamitrinib (1 μM)
[5] = compound 0.0032 uM + Gamitrinib (1 μM)
[6] = compound 0.08 uM + Gamitrinib (1 μM)
[7] = compound 0.4 uM + Gamitrinib (1 μM)
[8] = compound 2 uM + Gamitrinib (1 μM)
[9] = compound 10 uM + Gamitrinib (1 μM)
[10] = compound 2.56E−05 uM + DMSO (control)
[11] = compound 2.56E−05 uM + Gamitrinib (1 μM)
[12] = compound 5.12E−06 uM + DMSO (control)
[13] = compound 5.12E−06 uM + Gamitrinib (1 μM)
[14] = compound […] + Gamitrinib (1 μM)

SMILES	inhibition at 0.000128 µM (LN229 cells) [%]	inhibition at 0.00064 µM (LN229 cells) [%]	inhibition at 0.0032 µM (LN229 cells) [%]	inhibition at […] (LN229 cells) [%]	inhibition at 0.08 µM (LN229 cells) [%]	inhibition at 0.4 µM (LN229 cells) [%]	inhibition at 2 µM (LN229 cells) [%]	inhibition at 10 µM (LN229 cells) [%]	Percent inhibition (LN229 cells; [3]) [%]	Percent inhibition (LN229 cells; [4]) [%]	Percent inhibition (LN229 cells; [5]) [%]	Percent inhibition (LN229 cells; [6]) [%]	Percent inhibition (LN229 cells; [7]) [%]	Percent inhibition (LN229 cells; [8]) [%]	Percent inhibition (LN229 cells; [9]) [%]	Percent inhibition (LN229 cells; [10]) [%]	Percent inhibition (LN229 cells; [11]) [%]	Percent inhibition (LN229 cells; [12]) [%]	Percent inhibition (LN229 cells; [13]) [%]	Percent inhibition (LN229 cells; [14]) [%]	further results
C=CCNC1=C2C[C@@H](C)C[C@H](OC)[C@H](O)[C@@H](C)/C=C(\C)[C@H](OC(N)=O)[C@@H](OC)/C=C\C=C(/C)C(=O)NC(=CC1=O)C2=O [17-AAG, 17-(allylamino)-17-demethoxygeldanamycin]	–	–	–	–	–	–	–	–	–	–	–	–	–	–	–	–	–	–	–	–	phosphorylation of Akt on Ser473 [1]: had no effect; accumulation of phosphorylated Akt in response to PX-866 [2]: abolished the accumulation of phosphorylated Akt
FC(F)c1nc2ccccc2n1-c1nc(N2CCOCC2)nc(N2CCOCC2)n1 [ZSTK474]	–	–	–	–	–	–	–	–	–	–	–	–	–	–	–	–	–	–	–	–	PI3K activity (class I PI3K isoforms; 1 μM): 4.7 % of the control level; IC50 (class I PI3K isoforms; class I PI3K isoforms, mostly PI3Kδ): 0.037 µM
CS(=O)(=O)N1CCN(Cc2cc3nc(-c4cccc5[nH]ncc45)nc(N4CCOCC4)c3s2)CC1 [GDC0941]	-14.7	7.03	-17.3	-0.14	21.2	29.8	58.9	64.8	124.43	133.55	19.20	121.46	134.46	140.39	156.27	−27.15	104.45	0.41	125.94	126.85	Akt phosphorylation (Akt phosphorylation): Akt phosphorylation was observed; ATP production (LN229 or PC3 cells): reduced ATP production; glucose utilization (LN229 or PC3 cells): less glucose utilization; lactate production (LN229 or PC3 cells): less
Nc1cc(C(F)(F)F)c(-c2cc(N3CCOCC3)nc(N3CCOCC3)n2)cn1 [BKM120]	4.38	16.2	3.42	8.78	17.7	50.4	54.9	61.7	132.78	130.27	140.77	153.91	150.75	151.13	152.02	19.80	136.65	14.64	130.32	138.62	Akt phosphorylation (Akt phosphorylation): Akt phosphorylation was observed
Cn1c(=O)n(-c2ccc(C(C)(C)C#N)cc2)c2c3cc(-c4cnc5ccccc5c4)ccc3ncc21 [BEZ235]	-21.4	23.8	60.7	74.6	62.6	65.1	67.6	71.6	122.82	127.29	134.66	133.41	140.20	137.11	141.44	−9.35	121.84	−7.25	119.42	145.76	–
COc1ncc(-c2ccc3nccc(-c4ccnnc4)c3c2)cc1NS(=O)(=O)c1ccc(F)cc1F [GSK458]	8.89	11.3	38.1	52.4	67.5	58.1	63.1	53.6	135.48	139.64	139.92	133.47	138.84	142.85	156.27	1.66	128.82	17.03	132.69	136.49	–
Cc1cc([C@@H](C)Nc2ccccc2C(=O)O)c2nc(N3CCOCC3)cc(=O)n2c1 [AZD6482]	11.8	-10.5	-4.1	10.8	21.7	-7.43	5.91	43.4	123.03	128.16	123.40	111.71	114.08	133.90	141.10	−2.03	119.70	3.23	129.84	118.13	Akt phosphorylation (Akt phosphorylation): Akt phosphorylation was observed; ATP production (LN229 or PC3 cells): reduced ATP production; glucose utilization (LN229 or PC3 cells): less glucose utilization; lactate production (LN229 or PC3 cells): less
